Common to all, as to assay: growth of human tumour cells (NCI), 48 h
The subject of assay [1] is T47D.
In assay [2] the test system is RPMI-8226.
Assay [3] relates to MOLT-4.
The test system of assay [4] is K562.
Assay [5] deals with SNB-75.
The test system of assay [6] is UACC-257.
The subject of assay [7] is EKVX.
Assay [8] relates to UACC-62.
For assay [9], the system named is KM12.
In assay [10] the test system is Hs-578T.
Assay [11] has as its system BT-549.
The test system of assay [12] is OVCAR-4.
The subject of assay [13] is M14.
For assay [14], the system named is HT-29.
Assay [15] concerns UO-31.
Assay [16] deals with MDA-N.
In assay [17] the test system is A498.
Assay [18] relates to A549.
Assay [19] relates to NCI-H522.
The test system of assay [20] is RXF 393.

Molecules are shown by their SMILES.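 These data come from cells grown in 96-well plates and exposed to compound for 48 hours at five concentrations. GI50 = concentration required for 50% inhibition of growth.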 Activity calls are given as the source filed them. No stated cut-off is given here; in the data, active = GI50 up to about 1.1 µM and inactive = higher. Non-standard residues stand in square brackets, D forms with d. Residues, ends and D or L forms follow the SMILES beside them. *: point of attachment. Bn2Val = CC(C)[C@@H](C(=O)*)N(Cc1ccccc1)Cc1ccccc1; NH(4-Cl-benzyl) = Clc1ccc(CN*)cc1; NMeV = CN[C@H](C(=O)O)C(C)C; dNMeA = CN[C@H](C)C(=O)O

`CCCCCCCCCCCCCCCCOc1ccc(/C=C/C2=[N+](CCCl)CCO2)cc1`: the GI50 was > 100 µM (inactive) in assay [1]; > 100 µM (inactive) in [2]; > 100 µM (inactive) in assay [3]; 77.3 µM (inactive) in [4]; > 100 µM (inactive) in assay [5]; > 100 µM (inactive) in assay [6]. Moreover, the GI50 in assay [7], in [8], in [9], in assay [10], in assay [11] and in [12] was > 100 µM (inactive) in each case. Further, the GI50 in assay [13] is > 100 µM (inactive); in assay [14] it was > 100 µM (inactive); in assay [15], > 100 µM (inactive); in [16], > 100 µM (inactive); in assay [17] it was 73.1 µM (inactive); in assay [18], > 100 µM (inactive). The GI50 in assay [19] was > 100 µM (inactive).

Turning to `O=C(O)c1ccc(Oc2nc3ccccc3s2)cc1`, the GI50 in assay [1] was > 100 µM (inactive); in [2], 74 µM (inactive); in assay [3] it was > 100 µM (inactive); in assay [4], > 100 µM (inactive); in assay [6] it was > 100 µM (inactive); in [7] it was > 100 µM (inactive). Besides, the GI50 in [20] was > 100 µM (inactive); in [8], > 100 µM (inactive); in assay [9], > 100 µM (inactive); in [10], 64.4 µM (inactive); in [11] it was > 100 µM (inactive); in [12], > 100 µM (inactive). For the same compound, the GI50 in assay [13], in assay [14], in assay [15], in assay [17], in [18] and in assay [19] was > 100 µM (inactive) throughout.

For `CC1CCCC(CC(=O)O)(CC(=O)O)C1` (stereo not given), the GI50 in [2] was > 100 µM (inactive); in [3], 48.1 µM (inactive); in assay [4], > 100 µM (inactive); in assay [6], > 100 µM (inactive); in [7] it was > 100 µM (inactive); in [8], > 100 µM (inactive). Besides, the GI50 in assay [9], in assay [10], in [11], in assay [12], in assay [13] and in assay [14] was > 100 µM (inactive) throughout. Moreover, the GI50 in [15], in [16], in assay [17], in assay [18] and in assay [19] was > 100 µM (inactive) in each case.

As for `O=C(c1ccco1)N(Cc1cccnc1)C(=S)N(Cc1cccnc1)C(=O)c1ccco1`, the GI50 was 24.5 µM (inactive) in assay [1]; 11 µM (inactive) in assay [3]; 4.84 µM (inactive) in [4]; 38.8 µM (inactive) in [5]; 14 µM (inactive) in [6]; 19.8 µM (inactive) in assay [7]. Moreover, the GI50 was 28.7 µM (inactive) in assay [20]; 15.2 µM (inactive) in assay [8]; 3.9 µM (inactive) in [9]; 23.3 µM (inactive) in assay [10]; 23.2 µM (inactive) in assay [11]; 20.4 µM (inactive) in assay [12]. In addition, the GI50 is 12.9 µM (inactive) in assay [13]; 17.6 µM (inactive) in assay [14]; 15 µM (inactive) in assay [15]; 25.7 µM (inactive) in assay [17]; 20.5 µM (inactive) in assay [18]; 13.5 µM (inactive) in assay [19].

On to `O=[N+]([O-])c1ccc(/C=N\N=c2/ccc([N+](=O)[O-])c[nH]2)cc1`, for which the GI50 is > 100 µM (inactive) in assay [1]; > 100 µM (inactive) in [2]; > 100 µM (inactive) in assay [3]; > 100 µM (inactive) in assay [4]; 90.6 µM (inactive) in assay [5]; > 100 µM (inactive) in assay [6]. Moreover, the GI50 in [7], in assay [20], in assay [8], in assay [9], in assay [10] and in assay [11] was > 100 µM (inactive) each time. Moreover, the GI50 in assay [12], in assay [13], in [14], in assay [15], in [16] and in assay [18] was > 100 µM (inactive) throughout. The GI50 in [19] is > 100 µM (inactive).

As to `COc1ccc(-c2cc(-c3ccncc3)nc(N)c2-c2ccc(F)cc2)cc1`, the GI50 was 80.9 µM (inactive) in [1]; > 100 µM (inactive) in assay [2]; 73.3 µM (inactive) in [3]; > 100 µM (inactive) in assay [4]; 11.5 µM (inactive) in assay [5]; 24.2 µM (inactive) in assay [6]. Moreover, the GI50 was > 100 µM (inactive) in [7]; 15 µM (inactive) in assay [20]; 71.4 µM (inactive) in assay [8]; 33.8 µM (inactive) in assay [9]; > 100 µM (inactive) in assay [10]; 37.4 µM (inactive) in assay [11]. Besides, the GI50 in [12] was 26.7 µM (inactive); in [13], 42 µM (inactive); in assay [14] it was 11.7 µM (inactive); in [15] it was 17.3 µM (inactive); in [17], 46.3 µM (inactive); in [18], > 100 µM (inactive). Besides, the GI50 in [19] was 11.1 µM (inactive).

For the compound `Cc1oc(N)c(S(=O)(=O)c2ccc(Cl)cc2)c1C`, the GI50 in assay [1] is 31.2 µM (inactive); in assay [2], 40.2 µM (inactive); in assay [3] it was 47.3 µM (inactive); in assay [4], 53.6 µM (inactive); in [5], 29.9 µM (inactive); in assay [6] it was 40.2 µM (inactive). In addition, the GI50 in assay [7] was 45 µM (inactive); in assay [20], 30.8 µM (inactive); in [8] it was 37.9 µM (inactive); in [9], 37.1 µM (inactive); in assay [10] it was 50.7 µM (inactive); in assay [11], 17.6 µM (inactive). The GI50 was 21.7 µM (inactive) in assay [12]; 29.6 µM (inactive) in assay [13]; 54.3 µM (inactive) in assay [14]; 37 µM (inactive) in [15]; > 100 µM (inactive) in assay [17]; 34.4 µM (inactive) in assay [18]. In addition, the GI50 in assay [19] is 30 µM (inactive).

For the compound `O=C1CC(n2ccnc2)c2c(Cl)sc(Cl)c21` (stereo not given), the GI50 in assay [1] was 21.9 µM (inactive); in [2], 2.28 µM (inactive); in assay [3], 3.86 µM (inactive); in assay [4], 7.89 µM (inactive); in assay [5], 20.6 µM (inactive); in [6], 15.5 µM (inactive). Moreover, the GI50 in assay [7] is 19.2 µM (inactive); in [20] it was 16.4 µM (inactive); in assay [8], 15.5 µM (inactive); in assay [9], 15.6 µM (inactive); in [10] it was 30.4 µM (inactive); in assay [11], 15.3 µM (inactive). The GI50 was 19.5 µM (inactive) in assay [12]; 15.3 µM (inactive) in assay [13]; 19.8 µM (inactive) in assay [14]; 14 µM (inactive) in assay [15]; 16.2 µM (inactive) in assay [16]; 24.5 µM (inactive) in assay [18]. For the same compound, the GI50 in assay [19] is 6.31 µM (inactive).

Take `CC(C)[C@H](NC(=O)[C@H](C(C)C)N(Cc1ccccc1)Cc1ccccc1)C(=O)N(C)[C@H](C(=O)N1CCC[C@H]1C(=O)N(C)[C@H](C)C(=O)NCc1ccc(Cl)cc1)C(C)C` (Bn2Val-V[NMeV]P[dNMeA]-{NH(4-Cl-benzyl)}): the GI50 in assay [1] is 3.51 µM (inactive); in assay [2], 2.69 µM (inactive); in assay [3] it was 2.42 µM (inactive); in [4], 4.04 µM (inactive); in [5] it was 3.44 µM (inactive); in assay [6] it was 4.78 µM (inactive). The GI50 is 2.46 µM (inactive) in assay [7]; 1.53 µM (inactive) in [20]; 3.32 µM (inactive) in assay [8]; 3.38 µM (inactive) in [9]; 1.05 µM (active) in [10]; 3.18 µM (inactive) in assay [11]. Also, the GI50 in assay [12] is 3.96 µM (inactive); in assay [13] it was 4.01 µM (inactive); in assay [14], 1.74 µM (inactive); in assay [16], 4.43 µM (inactive); in assay [18], 4.04 µM (inactive); in [19], 2.06 µM (inactive).

For `O=C(CCN1CCCCC1)Nc1ccc2sc3ccccc3c(=O)c2n1`, the GI50 in assay [1] was 28.4 µM (inactive); in assay [2] it was 6.04 µM (inactive); in [3] it was 2.56 µM (inactive); in [4], 6.38 µM (inactive); in assay [5] it was 10.5 µM (inactive); in [6], 19.7 µM (inactive). For the same compound, the GI50 in [7] was 20.2 µM (inactive); in assay [8], 14.5 µM (inactive); in [9], 15.9 µM (inactive); in assay [10], 19.9 µM (inactive); in assay [11] it was 15.5 µM (inactive); in assay [12], 16 µM (inactive). Moreover, the GI50 in [13] was 13.6 µM (inactive); in assay [14] it was 31.6 µM (inactive); in assay [15] it was 9.79 µM (inactive); in assay [16], 14.3 µM (inactive); in assay [18], 15 µM (inactive); in assay [19], 12 µM (inactive).

For `CCN(CC)c1ccc2cc(C(=O)Nc3ccccc3OC)c(=N)oc2c1`, the GI50 in assay [2] was 15.9 µM (inactive); in [3], 3.24 µM (inactive); in assay [4], 18.5 µM (inactive); in assay [6] it was 40.8 µM (inactive); in assay [7] it was 32.8 µM (inactive); in assay [8] it was 25.2 µM (inactive). The GI50 in assay [9] was 33.1 µM (inactive); in [10] it was 22.1 µM (inactive); in [11], 26.6 µM (inactive); in [12], 27.5 µM (inactive); in [13], 35.2 µM (inactive); in assay [14], 12.9 µM (inactive). In addition, the GI50 is 0.321 µM (active) in assay [15], 31.3 µM (inactive) in assay [17], 21.8 µM (inactive) in assay [18] and 10.4 µM (inactive) in assay [19].

These data come from ChEMBL document CHEMBL1201862, “PubChem BioAssay data set” (2004).
